In test [1] the test system is J774A.1 macrophage cell line. Description: Caspase-Glo 8 caspase activity assay in J774A.1 macrophages with FasL with or without small molecule inhibitor. It is filed as cell-based. The procedure:
FIG. 11 provides two illustrations depicting in vitro assessment of cell behavior. (A) In Vitro Experimental Protocol: J774A.1 macrophage cell line was incubated overnight at 20,000 cells/well and treated with lipopolysaccharide (LPS) for 4 hours or 3days. Exogenous FasL was then added to initiate the extrinsic apoptotic pathway for 6 hours before caspase activity (Caspase-Glo3/7) and metabolic activity (alamarBlue) assays were performed to study the differences in cell behavior after exposure to each stimulant. (B) In Vitro Experimental Protocol for Small Molecule Testing. J774A. 1 macrophage cell line was incubated overnight at 20,000 cells/well and cultured […] for 3 days. Exogenous FasL was then added to initiate the extrinsic apoptotic pathway with or without a small molecule inhibitor for 6 hours before a caspase activity (Caspase-Glo8) assay was performed to study the differences in cell behavior after exposure. […] J774A.1 macrophage cell line was incubated overnight at 20,000 cells/well and cultured in complete media for 3 days. Exogenous FasL was then added to initiate the extrinsic apoptotic pathway with or without a small molecule inhibitor for 6 hours before a caspase activity (Caspase-Glo 8) assay was performed to study the differences in cell behavior after exposure. Lastly, tests were performed utilizing a small molecule inhibitor (YM155) of CFLIP. […]

For test [2], the system named is cFLIP in cancer cells. As to conditions: cancer cells versus non-cancerous cells; cited from earlier work.
For test [3], the system named is macrophages. As to conditions: in vitro; cited from earlier work.

For the compound `COCCn1c2c([n+](Cc3cnccn3)c1C)C(=O)c1ccccc1C2=O` [YM155], the “fold change in caspase 8 activity relative to untreated control” value in test [1] (100 ng/mL small molecule, FasL 6 hours, J774A.1 cells cultured 3 days, N=3) is “about 23 fold”. Besides, the “effect on caspase 8 activity (qualitative)” value in test [1] (small molecule exposure, J774A.1 cells, FasL) was “increased caspase 8 activity”. Moreover, the “cFLIP inhibition in cancer cells and induction of their death” value in test [2] is “inhibited cFLIP in cancer cells and induced their death without affecting non-cancerous cells”. Moreover, in test [3], the “effect on anti-apoptotic programming in macrophages” value was “reversed anti-apoptotic programming in macrophages in vitro”.

Source of the values: US20250242086A1, “THERAPEUTIC BIOMATERIAL THAT ATTENUATES THE FOREIGN BODY RESPONSE” (The Regents of the University of Colorado, a body corporate, priority 2022, published 2025).
